Laboratory results published in patent US20220274954A1, “SUBSTITUTED N-PHENYL-N-AMINOUARCILS AND SALTS THEREOF AND USE THEREOF AS HERBICIDAL AGENTS” (Bayer Aktiengesellschaft, priority 2019, published 2022).

Columns and labels:
Type in all cases: in vivo
Abutilon theophrasti = test: Post-emergence herbicidal action; conditions: for pest or weed control at 5 g/ha / pest or weed control at 20 g/ha: Abutilon theophrasti, 504 h, read-out: Abutilon theophrasti (efficacy in %)
Experimental: (§1) Seeds of monocotyledonous and dicotyledonous weeds and crop plants were placed in sandy loam in plastic or wood-fiber pots, covered with soil and cultivated in a greenhouse under controlled growth conditions. 2 to 3 weeks after sowing, the test plants were treated at the one-leaf stage. The compounds of the invention, formulated in the form of wettable powders (WP) or as emulsion concentrates (EC), were then sprayed onto the green parts of the plants as aqueous suspension or emulsion with addition of 0.5% additive at a water application rate of […] (converted). After the test plants had been kept in the greenhouse under optimum growth conditions for about 3 weeks, the activity of the preparations was rated visually in comparison to untreated controls. For example, 100% activity=the plants have died, 0% activity=like control plants. Tables A1 to A14 below show the effects of selected compounds of the general formula (I) according to Tables I.1 to I.34 on various harmful plants and at an application rate corresponding to 20 g/ha and less, which were obtained by the experimental procedure mentioned above.

Alopecurus myosuroides = test: Post-emergence herbicidal action
Experimental: as §1

Amaranthus retroflexus = test: Post-emergence herbicidal action; conditions: for pest or weed control at 5 g/ha / pest or weed control at 20 g/ha: Amaranthus retroflexus, 504 h, read-out: Amaranthus retroflexus (efficacy in %)
Experimental: as §1

Avena fatua = test: Post-emergence herbicidal action; conditions: application rate 20 g/ha
Experimental: as §1

Digitaria sanguinalis = test: Post-emergence herbicidal action; conditions: 504 h, read-out: Digitaria sanguinalis (efficacy in %); for pest or weed control at 5 g/ha: application rate 5 g/ha; for pest or weed control at 20 g/ha: application rate 20 g/ha
Experimental: as §1

Echinochloa crus-galli = test: Post-emergence herbicidal action; conditions: for pest or weed control at 5 g/ha / pest or weed control at 20 g/ha: Echinochloa crus-galli, 504 h, read-out: Echinochloa crus-galli (efficacy in %)
Experimental: as §1

Matricaria inodora = test: Post-emergence herbicidal action; conditions: for pest or weed control at 20 g/ha: Tripleurospermum inodorum, 504 h, read-out: Matricaria inodora (efficacy in %)
Experimental: as §1

Pharbitis purpurea = test: Post-emergence herbicidal action; conditions: for pest or weed control at 5 g/ha / pest or weed control at 20 g/ha: Ipomoea purpurea, 504 h, read-out: Pharbitis purpurea (efficacy in %)
Experimental: as §1

Polygonum convolvulus = test: Post-emergence herbicidal action; conditions: Fallopia convolvulus, 504 h, read-out: Polygonum convolvulus (efficacy in %); for pest or weed control at 5 g/ha: application rate 5 g/ha; for pest or weed control at 20 g/ha: application rate 20 g/ha
Experimental: as §1

Setaria viridis = test: Post-emergence herbicidal action; conditions: 504 h, read-out: Setaria viridis (efficacy in %); for pest or weed control at 5 g/ha: application rate 5 g/ha; for pest or weed control at 20 g/ha: application rate 20 g/ha
Experimental: as §1

Veronica persica = test: Post-emergence herbicidal action; conditions: for pest or weed control at 5 g/ha / pest or weed control at 20 g/ha: Veronica persica, 504 h, read-out: Veronica persica (efficacy in %)
Experimental: as §1

Viola tricolor = test: Post-emergence herbicidal action; conditions: for pest or weed control at 5 g/ha / pest or weed control at 20 g/ha: Viola tricolor, 504 h, read-out: Viola tricolor (efficacy in %)
Experimental: as §1

Oryza sativa = test: Post-emergence crop plant compatibility
Experimental: as §1, with “plants.” for “plants. Tables A1 to A14 below show the effects of selected compounds of the general formula (I) according to Tables I.1 to I.34 on various harmful plants and at an application rate corresponding to 20 g/ha and less, which were obtained by the experimental procedure mentioned above.”
(§2) Here, the observed effects on selected crop plants are stated in comparison to the untreated controls (values in %).

Triticum aestivum = test: Post-emergence crop plant compatibility
Experimental: as §1, with “plants.” for “plants. Tables A1 to A14 below show the effects of selected compounds of the general formula (I) according to Tables I.1 to I.34 on various harmful plants and at an application rate corresponding to 20 g/ha and less, which were obtained by the experimental procedure mentioned above.”
as §2

Zea mays = test: Post-emergence crop plant compatibility
Experimental: as §1, with “plants.” for “plants. Tables A1 to A14 below show the effects of selected compounds of the general formula (I) according to Tables I.1 to I.34 on various harmful plants and at an application rate corresponding to 20 g/ha and less, which were obtained by the experimental procedure mentioned above.”
as §2

Lolium rigidum = test: Post-emergence herbicidal action; conditions: application rate 20 g/ha
Experimental: as §1

Stellaria media = test: Post-emergence herbicidal action
Experimental: as §1

Glycine max = test: Post-emergence crop plant compatibility
Experimental: as §1, with “plants.” for “plants. Tables A1 to A14 below show the effects of selected compounds of the general formula (I) according to Tables I.1 to I.34 on various harmful plants and at an application rate corresponding to 20 g/ha and less, which were obtained by the experimental procedure mentioned above.”
as §2

Brassica napus = test: Post-emergence crop plant compatibility
Experimental: as §1, with “plants.” for “plants. Tables A1 to A14 below show the effects of selected compounds of the general formula (I) according to Tables I.1 to I.34 on various harmful plants and at an application rate corresponding to 20 g/ha and less, which were obtained by the experimental procedure mentioned above.”
as §2

Row | SMILES | pest or weed control at 5 g/ha (Abutilon theophrasti; application rate 5 g/ha) | pest or weed control at 20 g/ha (Abutilon theophrasti; application rate 20 g/ha) | Alopecurus myosuroides (efficacy in %) (Alopecurus myosuroides; application rate 20 g/ha) | pest or weed control at 5 g/ha (Amaranthus retroflexus; application rate 5 g/ha) | pest or weed control at 20 g/ha (Amaranthus retroflexus; application rate 20 g/ha) | pest or weed control at 20 g/ha (Digitaria sanguinalis) | pest or weed control at 20 g/ha (Echinochloa crus-galli; application rate 20 g/ha) | pest or weed control at 20 g/ha (Matricaria inodora; application rate 20 g/ha) | pest or weed control at 5 g/ha (Pharbitis purpurea; application rate 5 g/ha) | pest or weed control at 20 g/ha (Pharbitis purpurea; application rate 20 g/ha) | pest or weed control at 5 g/ha (Polygonum convolvulus) | pest or weed control at 20 g/ha (Polygonum convolvulus) | pest or weed control at 5 g/ha (Setaria viridis) | pest or weed control at 20 g/ha (Setaria viridis) | pest or weed control at 5 g/ha (Veronica persica; application rate 5 g/ha) | pest or weed control at 20 g/ha (Veronica persica; application rate 20 g/ha) | pest or weed control at 5 g/ha (Viola tricolor; application rate 5 g/ha) | pest or weed control at 20 g/ha (Viola tricolor; application rate 20 g/ha) | Oryza sativa (efficacy in %) (Oryza sativa; application rate 1.25 g/ha) | Oryza sativa (efficacy in %) (Oryza sativa; application rate 5 g/ha) | further results
1 | Nn1c(C(F)(F)F)cc(=O)n(-c2cc(Sc3cccnc3OCC(=O)OCc3ccccc3)c(Cl)cc2F)c1=O [I.1-457, Benzyl {[3-({5-[3-amino-2,6-dioxo-4-(trifluoromethyl)-3,6-dihydropyrimidin-1(2H)-yl]-2-chloro-4-fluorophenyl}sulfanyl)pyridin-2-yl]oxy}acetate] | 100% | 100% | 80% | 100% | 100% | 100% | 100% | 90% | 100% | 100% | 100% | 100% | 100% | 100% | 100% | 100% | 100% | 100% | 0% | – | Alopecurus myosuroides (efficacy in %) (Alopecurus myosuroides; application rate 5 g/ha): 80%; Avena fatua (efficacy in %) (Avena fatua): 80%; pest or weed control at 5 g/ha (Digitaria sanguinalis): 100%; pest or weed control at 5 g/ha (Echinochloa crus-galli; application rate 5 g/ha): 80%; Triticum aestivum (efficacy in %) (Triticum aestivum; application rate 1.25 g/ha): 20%; Zea mays (efficacy in %) (Zea mays; application rate 1.25 g/ha): 20%
2 | Nn1c(C(F)(F)F)cc(=O)n(-c2cc(Sc3cccnc3OCC(=O)O)c(Cl)cc2F)c1=O [I.1-481] | – | – | 100% | – | – | – | – | – | – | – | – | – | – | – | – | – | – | – | 10% | 20% | Abutilon theophrasti (efficacy in %) (Abutilon theophrasti; application rate 5 g/ha): 100%; Abutilon theophrasti (efficacy in %) (Abutilon theophrasti; application rate 20 g/ha): 100%; Alopecurus myosuroides (efficacy in %) (Alopecurus myosuroides; application rate 5 g/ha): 100%; Amaranthus retroflexus (efficacy in %) (Amaranthus retroflexus; application rate 5 g/ha): 100%; Amaranthus retroflexus (efficacy in %) (Amaranthus retroflexus; application rate 20 g/ha): 100%; Echinochloa crus-galli (efficacy in %) (Echinochloa crus-galli; application rate 5 g/ha): 90%; Echinochloa crus-galli (efficacy in %) (Echinochloa crus-galli; application rate 20 g/ha): 100%; Lolium rigidum (efficacy in %) (Lolium rigidum): 80%; Matricaria inodora (efficacy in %) (Matricaria inodora; application rate 5 g/ha): 90%; Matricaria inodora (efficacy in %) (Matricaria inodora; application rate 20 g/ha): 100%; Pharbitis purpurea (efficacy in %) (Pharbitis purpurea; application rate 5 g/ha): 80%; Pharbitis purpurea (efficacy in %) (Pharbitis purpurea; application rate 20 g/ha): 100%; Veronica persica (efficacy in %) (Veronica persica; application rate 5 g/ha): 100%; Veronica persica (efficacy in %) (Veronica persica; application rate 20 g/ha): 100%; Viola tricolor (efficacy in %) (Viola tricolor; application rate 5 g/ha): 100%; Viola tricolor (efficacy in %) (Viola tricolor; application rate 20 g/ha): 100%; Triticum aestivum (efficacy in %) (Triticum aestivum; application rate 1.25 g/ha): 20%
3 | CCOC(=O)C(C)Oc1ncccc1Sc1cc(-n2c(=O)cc(C(F)(F)F)n(N)c2=O)c(F)cc1Cl (centres unmarked) [I.2-442, Ethyl 2-{[3-({5-[3-amino-2,6-dioxo-4-(trifluoromethyl)-3,6-dihydropyrimidin-1(2H)-yl]-2-chloro-4-fluorophenyl}sulfanyl)pyridin-2-yl]oxy}propanoate] | 100% | 100% | – | 100% | 100% | 100% | 100% | 90% | – | – | 100% | 100% | 100% | 100% | 100% | 100% | 100% | 100% | – | 0% | Stellaria media (efficacy in %) (Stellaria media; application rate 5 g/ha): 80%; Stellaria media (efficacy in %) (Stellaria media; application rate 20 g/ha): 100%; Glycine max (efficacy in %) (Glycine max; application rate 1.25 g/ha): 10%; Triticum aestivum (efficacy in %) (Triticum aestivum; application rate 5 g/ha): 20%; Zea mays (efficacy in %) (Zea mays; application rate 1.25 g/ha): 10%; Zea mays (efficacy in %) (Zea mays; application rate 5 g/ha): 20%
4 | Nn1c(C(F)(F)F)cc(=O)n(-c2cc(Sc3cccnc3OCCC(=O)OCc3ccccc3)c(Cl)cc2F)c1=O [I.5-457, Benzyl 3-{[3-({5-[3-amino-2,6-dioxo-4-(trifluoromethyl)-3,6-dihydropyrimidin-1(2H)-yl]-2-chloro-4-fluorophenyl}sulfanyl)pyridin-2-yl]oxy}propanoate] | – | 80% | – | 100% | – | – | 80% | – | 90% | 90% | 90% | 100% | 100% | 100% | 100% | 100% | 100% | – | 0% | 10% | Stellaria media (efficacy in %) (Stellaria media; application rate 5 g/ha): 80%; Stellaria media (efficacy in %) (Stellaria media; application rate 20 g/ha): 100%; Brassica napus (efficacy in %) (Brassica napus; application rate 1.25 g/ha): 0%; Brassica napus (efficacy in %) (Brassica napus; application rate 5 g/ha): 10%; Glycine max (efficacy in %) (Glycine max; application rate 1.25 g/ha): 0%; Glycine max (efficacy in %) (Glycine max; application rate 5 g/ha): 10%; Triticum aestivum (efficacy in %) (Triticum aestivum; application rate 5 g/ha): 20%; Zea mays (efficacy in %) (Zea mays; application rate 5 g/ha): 20%
5 | COC(=O)CCCOc1ncccc1Sc1cc(-n2c(=O)cc(C(F)(F)F)n(N)c2=O)c(F)cc1Cl [I.6-441, Methyl 4-{[3-({5-[3-amino-2,6-dioxo-4-(trifluoromethyl)-3,6-dihydropyrimidin-1(2H)-yl]-2-chloro-4-fluorophenyl}sulfanyl)pyridin-2-yl]oxy}butanoate] | 100% | 100% | 80% | 100% | 100% | 100% | 90% | 80% | 80% | 90% | 100% | 100% | 90% | 100% | 100% | 100% | 100% | 100% | – | 20% | pest or weed control at 5 g/ha (Digitaria sanguinalis): 80%; pest or weed control at 5 g/ha (Echinochloa crus-galli; application rate 5 g/ha): 80%; Stellaria media (efficacy in %) (Stellaria media; application rate 5 g/ha): 100%; Stellaria media (efficacy in %) (Stellaria media; application rate 20 g/ha): 100%; Brassica napus (efficacy in %) (Brassica napus; application rate 1.25 g/ha): 20%; Triticum aestivum (efficacy in %) (Triticum aestivum; application rate 5 g/ha): 20%; Zea mays (efficacy in %) (Zea mays; application rate 1.25 g/ha): 10%; Zea mays (efficacy in %) (Zea mays; application rate 5 g/ha): 20%
